Experiments:
[1] = Solubility of linoleic acid in a silicone oil or a mixed silicone oil
pigmentation = assay: Animal experiments on inhibition of pigmentation (general statement, no method given); format: in vivo; settings: compared with free fatty acids or alkyl esters thereof

| SMILES | Solubility in dimethylpolysiloxane [1] | effects on inhibition of pigmentation (pigmentation) |
| --- | --- | --- |
| CCCCC/C=C\C/C=C\CCCCCCCC(=O)O [linoleic acid] | not soluble |  |
| CCCCCCCCCCCCCCCC(=O)O [palmitic acid] |  | no such significant effects |
| CC/C=C\C/C=C\C/C=C\CCCCCCCC(=O)O [α-linolenic acid] | not soluble |  |
| CCCCCCCCCCCCCCCCCC(=O)O [stearic acid] |  | no such significant effects |

Source: EP0470275B1, “Skin whitening cosmetics” (priority 1990, dated 1992)
